Measurements as given in ChEMBL document CHEMBL1201862, “PubChem BioAssay data set” (2004).
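Where inhibition never reached the appropriate level, the endpoint shown equals the highest concentration tested. Otherwise, values were interpolated linearly from a five-concentration, 48-hour dose response in 96-well plates. Abbreviation: GI50, concentration required for 50% inhibition of growth.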 Active and inactive are the calls of the source. Cut-off read from the data, not from the text of the source: active = GI50 up to about 1.1 µM and inactive = higher.

Assays:
Test in all cases: NCI anticancer screen, dose series, 48 h
SR = system: SR
OVCAR-8 = system: OVCAR-8
OVCAR-4 = system: OVCAR-4
DLD-1 = system: DLD-1
OVCAR-3 = system: OVCAR-3
SNB-78 = system: SNB-78
SW-620 = system: SW-620
UO-31 = system: UO-31
EKVX = system: EKVX
CCRF-CEM = system: CCRF-CEM
HCT-116 = system: HCT-116
M19-MEL = system: M19-MEL
RXF 393 = system: RXF 393
TK-10 = system: TK-10
UACC-62 = system: UACC-62
SK-MEL-28 = system: SK-MEL-28
HOP-62 = system: HOP-62
A498 = system: A498
COLO 205 = system: COLO 205
HL-60 = system: HL-60
IGROV-1 = system: IGROV-1
A549 = system: A549
KM-20L2 = system: KM-20L2
HT-29 = system: HT-29
MOLT-4 = system: MOLT-4
XF498 = system: XF498
KM12 = system: KM12
LXFL 529 = system: LXFL 529
HCC 2998 = system: HCC 2998
SK-MEL-2 = system: SK-MEL-2
NCI-H460 = system: NCI-H460
HOP-18 = system: HOP-18
M14 = system: M14
CAKI-1 = system: CAKI-1
SF-539 = system: SF-539
SK-MEL-5 = system: SK-MEL-5
NCI-H23 = system: NCI-H23
SF-268 = system: SF-268
NCI-H226 = system: NCI-H226
LOX IMVI = system: LOX IMVI
SNB-75 = system: SNB-75
786-0 = system: 786-0
UACC-257 = system: UACC-257
DMS-273 = system: DMS-273
K562 = system: K562
HCT-15 = system: HCT-15
SF-295 = system: SF-295
RXF 631 = system: RXF 631
DMS-114 = system: DMS-114
HOP-92 = system: HOP-92
Malme-3M = system: Malme-3M
ACHN = system: ACHN
U-251 = system: U-251
SN12C = system: SN12C
OVCAR-5 = system: OVCAR-5
RPMI-8226 = system: RPMI-8226
SK-OV-3 = system: SK-OV-3
NCI-H522 = system: NCI-H522
SNB-19 = system: SNB-19

Compound: C/C(=N\NC(=S)Nc1ccc([N+](=O)[O-])cc1S(=O)(=O)O)c1ccccn1
- GI50 (SR): 32.6 µM (inactive)
- GI50 (OVCAR-8): 34.3 µM (inactive)
- GI50 (OVCAR-4): 36.8 µM (inactive)
- GI50 (DLD-1): 41.2 µM (inactive)
- GI50 (OVCAR-3): 26.6 µM (inactive)
- GI50 (SNB-78): > 100 µM (inactive)
- GI50 (SW-620): 26.5 µM (inactive)
- GI50 (UO-31): 45.6 µM (inactive)
- GI50 (EKVX): 37.9 µM (inactive)
- GI50 (CCRF-CEM): 39.9 µM (inactive)
- GI50 (HCT-116): 28.4 µM (inactive)
- GI50 (M19-MEL): 43.8 µM (inactive)
- GI50 (RXF 393): 38.8 µM (inactive)
- GI50 (TK-10): 37.4 µM (inactive)
- GI50 (UACC-62): 73.8 µM (inactive)
- GI50 (SK-MEL-28): > 100 µM (inactive)
- GI50 (HOP-62): 76.9 µM (inactive)
- GI50 (A498): 36.7 µM (inactive)
- GI50 (COLO 205): 36.5 µM (inactive)
- GI50 (HL-60): 31.7 µM (inactive)
- GI50 (IGROV-1): 73.1 µM (inactive)
- GI50 (A549): 37.7 µM (inactive)
- GI50 (KM-20L2): 26.3 µM (inactive)
- GI50 (HT-29): 34.6 µM (inactive)
- GI50 (MOLT-4): 40.1 µM (inactive)
- GI50 (XF498): 30 µM (inactive)
- GI50 (KM12): 51.8 µM (inactive)
- GI50 (LXFL 529): 61 µM (inactive)
- GI50 (HCC 2998): 30.9 µM (inactive)
- GI50 (SK-MEL-2): 29.4 µM (inactive)
- GI50 (NCI-H460): 25.7 µM (inactive)
- GI50 (HOP-18): 40.1 µM (inactive)
- GI50 (M14): 64 µM (inactive)
- GI50 (CAKI-1): 52.8 µM (inactive)
- GI50 (SF-539): 46.3 µM (inactive)
- GI50 (SK-MEL-5): 57.8 µM (inactive)
- GI50 (NCI-H23): 69.3 µM (inactive)
- GI50 (SF-268): 95.3 µM (inactive)
- GI50 (NCI-H226): 37.4 µM (inactive)
- GI50 (LOX IMVI): 53.2 µM (inactive)
- GI50 (SNB-75): 43 µM (inactive)
- GI50 (786-0): 59.8 µM (inactive)
- GI50 (UACC-257): > 100 µM (inactive)
- GI50 (DMS-273): 37 µM (inactive)
- GI50 (K562): 41.1 µM (inactive)
- GI50 (HCT-15): 37.6 µM
- GI50 (SF-295): > 100 µM (inactive)
- GI50 (RXF 631): > 100 µM (inactive)
- GI50 (DMS-114): 39.7 µM (inactive)
- GI50 (HOP-92): 41.9 µM (inactive)
- GI50 (Malme-3M): 95.9 µM (inactive)
- GI50 (ACHN): 62.4 µM (inactive)
- GI50 (U-251): 33.5 µM (inactive)
- GI50 (SN12C): 59 µM (inactive)
- GI50 (OVCAR-5): 39.9 µM (inactive)
- GI50 (RPMI-8226): 40 µM (inactive)

Compound: COC(=O)C1=C(c2ccc(Cl)cc2)C(O)NC(NN)=N1 (stereo unspecified)
- GI50 (SR): > 100 µM (inactive)
- GI50 (OVCAR-8): > 100 µM (inactive)
- GI50 (OVCAR-4): > 100 µM (inactive)
- GI50 (DLD-1): > 100 µM (inactive)
- GI50 (OVCAR-3): > 100 µM (inactive)
- GI50 (SNB-78): > 100 µM (inactive)
- GI50 (SW-620): > 100 µM (inactive)
- GI50 (UO-31): > 100 µM (inactive)
- GI50 (EKVX): > 100 µM (inactive)
- GI50 (CCRF-CEM): > 100 µM (inactive)
- GI50 (HCT-116): > 100 µM (inactive)
- GI50 (M19-MEL): > 100 µM (inactive)
- GI50 (RXF 393): > 100 µM (inactive)
- GI50 (TK-10): > 100 µM (inactive)
- GI50 (UACC-62): > 100 µM (inactive)
- GI50 (SK-OV-3): > 100 µM (inactive)
- GI50 (SK-MEL-28): > 100 µM (inactive)
- GI50 (HOP-62): > 100 µM (inactive)
- GI50 (HL-60): > 100 µM (inactive)
- GI50 (IGROV-1): > 100 µM (inactive)
- GI50 (A549): > 100 µM (inactive)
- GI50 (NCI-H522): > 100 µM (inactive)
- GI50 (HT-29): > 100 µM (inactive)
- GI50 (MOLT-4): > 100 µM (inactive)
- GI50 (XF498): > 100 µM (inactive)
- GI50 (KM12): > 100 µM (inactive)
- GI50 (LXFL 529): > 100 µM (inactive)
- GI50 (HCC 2998): > 100 µM (inactive)
- GI50 (SK-MEL-2): > 100 µM (inactive)
- GI50 (NCI-H460): > 100 µM (inactive)
- GI50 (HOP-18): > 100 µM (inactive)
- GI50 (M14): > 100 µM (inactive)
- GI50 (CAKI-1): > 100 µM (inactive)
- GI50 (SF-539): > 100 µM (inactive)
- GI50 (SK-MEL-5): > 100 µM (inactive)
- GI50 (NCI-H23): > 100 µM (inactive)
- GI50 (SF-268): > 100 µM (inactive)
- GI50 (NCI-H226): > 100 µM (inactive)
- GI50 (LOX IMVI): > 100 µM (inactive)
- GI50 (786-0): > 100 µM (inactive)
- GI50 (UACC-257): > 100 µM (inactive)
- GI50 (K562): > 100 µM (inactive)
- GI50 (HCT-15): > 100 µM
- GI50 (SF-295): > 100 µM (inactive)
- GI50 (RXF 631): > 100 µM (inactive)
- GI50 (DMS-114): > 100 µM (inactive)
- GI50 (HOP-92): > 100 µM (inactive)
- GI50 (Malme-3M): > 100 µM (inactive)
- GI50 (SNB-19): > 100 µM (inactive)
- GI50 (ACHN): > 100 µM (inactive)
- GI50 (U-251): > 100 µM (inactive)
- GI50 (SN12C): > 100 µM (inactive)
- GI50 (OVCAR-5): > 100 µM (inactive)
- GI50 (RPMI-8226): > 100 µM (inactive)

Compound: COC(=O)/C=C1\CCC2[C@@H](C(=O)CC3[C@]2(C)CCC[C@@]3(C)C(=O)OC)C1C (stereo partly specified)
- GI50 (OVCAR-8): 15.1 µM (inactive)
- GI50 (OVCAR-4): 22.5 µM (inactive)
- GI50 (DLD-1): 29.2 µM (inactive)
- GI50 (OVCAR-3): 22.7 µM (inactive)
- GI50 (SNB-78): 29.2 µM (inactive)
- GI50 (SW-620): 26.6 µM (inactive)
- GI50 (UO-31): 21.7 µM (inactive)
- GI50 (EKVX): 27.3 µM (inactive)
- GI50 (CCRF-CEM): 9.2 µM (inactive)
- GI50 (HCT-116): 18.5 µM (inactive)
- GI50 (M19-MEL): 19.2 µM (inactive)
- GI50 (TK-10): 19.5 µM (inactive)
- GI50 (UACC-62): 13.6 µM (inactive)
- GI50 (SK-OV-3): 37.9 µM (inactive)
- GI50 (SK-MEL-28): 16.3 µM (inactive)
- GI50 (HOP-62): 28.9 µM (inactive)
- GI50 (A498): 34.7 µM (inactive)
- GI50 (COLO 205): 17.3 µM (inactive)
- GI50 (HL-60): 13.1 µM (inactive)
- GI50 (IGROV-1): 24.6 µM (inactive)
- GI50 (A549): 20.2 µM (inactive)
- GI50 (KM-20L2): 29.3 µM (inactive)
- GI50 (NCI-H522): 16.5 µM (inactive)
- GI50 (HT-29): 24 µM (inactive)
- GI50 (MOLT-4): 6.37 µM (inactive)
- GI50 (XF498): 13.7 µM (inactive)
- GI50 (KM12): 17.1 µM (inactive)
- GI50 (LXFL 529): 8.73 µM (inactive)
- GI50 (HCC 2998): 34.6 µM (inactive)
- GI50 (SK-MEL-2): 18.2 µM (inactive)
- GI50 (NCI-H460): 15.7 µM (inactive)
- GI50 (HOP-18): 29.4 µM (inactive)
- GI50 (M14): 17.9 µM (inactive)
- GI50 (CAKI-1): 30.1 µM (inactive)
- GI50 (SF-539): 25.2 µM (inactive)
- GI50 (SK-MEL-5): 13.5 µM (inactive)
- GI50 (NCI-H23): > 10 µM (inactive)
- GI50 (SF-268): 19.7 µM (inactive)
- GI50 (NCI-H226): 20 µM (inactive)
- GI50 (SNB-75): 18.5 µM (inactive)
- GI50 (786-0): 31.3 µM (inactive)
- GI50 (UACC-257): 17.9 µM (inactive)
- GI50 (DMS-273): 22 µM (inactive)
- GI50 (K562): 15 µM (inactive)
- GI50 (HCT-15): 29.8 µM
- GI50 (SF-295): 25.6 µM (inactive)
- GI50 (RXF 631): 25.4 µM (inactive)
- GI50 (DMS-114): 16.1 µM (inactive)
- GI50 (HOP-92): 21 µM (inactive)
- GI50 (Malme-3M): 21.1 µM (inactive)
- GI50 (SNB-19): 32.4 µM (inactive)
- GI50 (ACHN): 22.5 µM (inactive)
- GI50 (U-251): 33.3 µM (inactive)
- GI50 (SN12C): 24.8 µM (inactive)
- GI50 (OVCAR-5): 33 µM (inactive)
- GI50 (RPMI-8226): 3.93 µM (inactive)
